# The source made the active and inactive calls.
# Columns and labels:
# [1] = Luminescence Cell-Based Dose Retest to Confirm Inhibitors of Cancer Stem Cells. [Related pubchem assays (depositor defined):AID2717, AID2721]; assay type: functional; conditions: Homo sapiens
# [2] = target: T1, Microphthalmia-associated transcription factor (Homo sapiens, UniProt O75030); test: TRPM1 promoter luciferase signal decrease, dose response, MITF inhibitor project, cell-based, SK-MEL-5, cherry-picked, set 3 (AID 493073); assay type: functional
# T1 sequence (O75030 whole entry): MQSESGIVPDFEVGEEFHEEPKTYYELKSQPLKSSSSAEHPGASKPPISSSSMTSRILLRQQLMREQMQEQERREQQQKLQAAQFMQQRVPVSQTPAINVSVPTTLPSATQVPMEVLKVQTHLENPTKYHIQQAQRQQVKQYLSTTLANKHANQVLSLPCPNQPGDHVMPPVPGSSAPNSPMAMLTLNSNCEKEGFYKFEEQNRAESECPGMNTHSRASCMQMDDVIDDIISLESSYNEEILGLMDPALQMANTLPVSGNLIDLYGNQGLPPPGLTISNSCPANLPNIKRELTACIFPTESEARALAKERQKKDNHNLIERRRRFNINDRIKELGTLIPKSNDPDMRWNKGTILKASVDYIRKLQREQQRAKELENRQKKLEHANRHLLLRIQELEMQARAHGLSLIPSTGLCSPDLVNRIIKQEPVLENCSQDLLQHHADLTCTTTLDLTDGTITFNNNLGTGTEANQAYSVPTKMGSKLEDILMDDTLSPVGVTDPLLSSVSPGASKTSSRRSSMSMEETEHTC
# [3] = test system: INS1; test: beta cell apoptosis inhibitors, cytokine rescue, dose response, luminescence, retest (AID 449756); assay type: functional, cell-based; conditions: Rattus norvegicus;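 note: cell death triggered by IL-1 beta plus TNF-alpha plus IFN-gamma mixture; protective hits raise ATP signal compared with cytokine alone wells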
# [4] = test system: A-375; test: A375 melanoma cell viability reduction, dose response, counter-screen for MITF modulator project, cherry-pick samples, set 2 (AID 540335); assay type: functional, cell-based; conditions: Homo sapiens
# [5] = insulin promoter down-regulators in MIN6 cells, imaging, high-content screening, mouse beta cells (AID 1628); assay type: functional
# [6] = cytotoxicity in MIN6 insulinoma cells, dose response, cytotoxicity control, cell-based, mouse insulinoma (AID 2122); assay type: functional;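 note: confirmatory high-throughput counterscreen run to flag cytotoxic compounds; mouse MIN-6 beta cells carrying an insulin promoter eGFP reporter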
# [7] = target: Cytochrome P450 2C19 (Homo sapiens, UniProt P33261); test: Cytochrome panel assay with activity outcomes. Panel member name: p450-cyp2c19 Compounds with AC50 equal or less than 10 uM are considered active; assay type: functional; conditions: read-out: AC50
# Cytochrome P450 2C19, sequence (P33261 whole entry): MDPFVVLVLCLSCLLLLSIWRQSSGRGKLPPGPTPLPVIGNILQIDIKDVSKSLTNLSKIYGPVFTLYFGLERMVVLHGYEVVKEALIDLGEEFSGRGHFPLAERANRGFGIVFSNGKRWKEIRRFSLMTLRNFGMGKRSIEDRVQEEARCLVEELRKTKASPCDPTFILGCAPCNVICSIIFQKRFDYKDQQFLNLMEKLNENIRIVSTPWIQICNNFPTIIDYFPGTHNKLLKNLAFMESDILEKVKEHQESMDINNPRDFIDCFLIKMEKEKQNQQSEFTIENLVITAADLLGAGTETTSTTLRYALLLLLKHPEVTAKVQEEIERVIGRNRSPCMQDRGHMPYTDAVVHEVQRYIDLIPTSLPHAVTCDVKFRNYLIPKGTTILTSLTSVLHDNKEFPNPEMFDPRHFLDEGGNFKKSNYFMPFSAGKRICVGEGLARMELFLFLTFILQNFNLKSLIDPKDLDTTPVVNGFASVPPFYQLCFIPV
# [8] = target: Cytochrome P450 3A4 (Homo sapiens, UniProt P08684);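 note: CYP3A4 tested as one member of a cytochrome P450 panel screen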
# Cytochrome P450 3A4, sequence (P08684 whole entry): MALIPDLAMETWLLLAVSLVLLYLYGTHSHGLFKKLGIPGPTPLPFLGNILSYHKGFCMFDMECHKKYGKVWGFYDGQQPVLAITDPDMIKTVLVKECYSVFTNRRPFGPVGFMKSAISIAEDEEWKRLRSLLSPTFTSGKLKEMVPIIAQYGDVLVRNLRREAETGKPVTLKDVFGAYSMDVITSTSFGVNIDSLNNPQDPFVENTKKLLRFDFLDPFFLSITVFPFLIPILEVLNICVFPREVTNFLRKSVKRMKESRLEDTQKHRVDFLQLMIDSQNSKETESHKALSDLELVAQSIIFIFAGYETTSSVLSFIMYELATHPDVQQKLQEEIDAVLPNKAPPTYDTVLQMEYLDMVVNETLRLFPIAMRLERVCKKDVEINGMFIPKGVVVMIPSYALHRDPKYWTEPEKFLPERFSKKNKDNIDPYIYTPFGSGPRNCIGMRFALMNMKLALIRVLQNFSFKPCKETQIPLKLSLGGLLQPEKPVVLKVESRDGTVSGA
# [9] = target: Cytochrome P450 2D6 (Homo sapiens, UniProt P10635);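 note: CYP2D6 member of a cytochrome P450 panel assay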
# Cytochrome P450 2D6, sequence (P10635 whole entry): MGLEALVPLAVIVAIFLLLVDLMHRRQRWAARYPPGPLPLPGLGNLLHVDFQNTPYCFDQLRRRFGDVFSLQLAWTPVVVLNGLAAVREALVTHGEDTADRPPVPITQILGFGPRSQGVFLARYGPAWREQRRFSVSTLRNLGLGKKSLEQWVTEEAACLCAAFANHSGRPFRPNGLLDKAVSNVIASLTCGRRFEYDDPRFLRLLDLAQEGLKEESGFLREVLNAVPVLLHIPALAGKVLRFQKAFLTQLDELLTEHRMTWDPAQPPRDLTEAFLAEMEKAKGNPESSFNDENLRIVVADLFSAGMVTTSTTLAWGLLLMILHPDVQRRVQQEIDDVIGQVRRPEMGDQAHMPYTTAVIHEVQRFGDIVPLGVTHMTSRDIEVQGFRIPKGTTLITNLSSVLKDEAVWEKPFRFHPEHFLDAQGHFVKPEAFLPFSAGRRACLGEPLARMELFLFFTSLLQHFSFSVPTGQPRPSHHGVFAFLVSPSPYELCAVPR
# [10] = target: Tumor necrosis factor (Homo sapiens, UniProt P01375); test: TNFa-triggered NF-kB activation inhibitors, SAR follow-up, cell-based, revised (AID 2337); assay type: functional
# Tumor necrosis factor, sequence (P01375 whole entry, the tested form may be a part): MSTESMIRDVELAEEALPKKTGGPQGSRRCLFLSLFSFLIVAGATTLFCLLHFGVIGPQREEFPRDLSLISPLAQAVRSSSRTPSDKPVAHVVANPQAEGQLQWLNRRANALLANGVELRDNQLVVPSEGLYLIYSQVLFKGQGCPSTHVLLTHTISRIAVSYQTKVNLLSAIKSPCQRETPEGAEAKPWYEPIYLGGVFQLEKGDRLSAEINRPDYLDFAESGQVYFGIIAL
# [11] = target: T2, Nucleotide-binding oligomerization domain-containing protein 1 (Homo sapiens, UniProt Q9Y239); test: NOD1 signaling inhibitors, SAR follow-up, revised (AID 2333); assay type: functional
# T2 sequence (Q9Y239 whole entry): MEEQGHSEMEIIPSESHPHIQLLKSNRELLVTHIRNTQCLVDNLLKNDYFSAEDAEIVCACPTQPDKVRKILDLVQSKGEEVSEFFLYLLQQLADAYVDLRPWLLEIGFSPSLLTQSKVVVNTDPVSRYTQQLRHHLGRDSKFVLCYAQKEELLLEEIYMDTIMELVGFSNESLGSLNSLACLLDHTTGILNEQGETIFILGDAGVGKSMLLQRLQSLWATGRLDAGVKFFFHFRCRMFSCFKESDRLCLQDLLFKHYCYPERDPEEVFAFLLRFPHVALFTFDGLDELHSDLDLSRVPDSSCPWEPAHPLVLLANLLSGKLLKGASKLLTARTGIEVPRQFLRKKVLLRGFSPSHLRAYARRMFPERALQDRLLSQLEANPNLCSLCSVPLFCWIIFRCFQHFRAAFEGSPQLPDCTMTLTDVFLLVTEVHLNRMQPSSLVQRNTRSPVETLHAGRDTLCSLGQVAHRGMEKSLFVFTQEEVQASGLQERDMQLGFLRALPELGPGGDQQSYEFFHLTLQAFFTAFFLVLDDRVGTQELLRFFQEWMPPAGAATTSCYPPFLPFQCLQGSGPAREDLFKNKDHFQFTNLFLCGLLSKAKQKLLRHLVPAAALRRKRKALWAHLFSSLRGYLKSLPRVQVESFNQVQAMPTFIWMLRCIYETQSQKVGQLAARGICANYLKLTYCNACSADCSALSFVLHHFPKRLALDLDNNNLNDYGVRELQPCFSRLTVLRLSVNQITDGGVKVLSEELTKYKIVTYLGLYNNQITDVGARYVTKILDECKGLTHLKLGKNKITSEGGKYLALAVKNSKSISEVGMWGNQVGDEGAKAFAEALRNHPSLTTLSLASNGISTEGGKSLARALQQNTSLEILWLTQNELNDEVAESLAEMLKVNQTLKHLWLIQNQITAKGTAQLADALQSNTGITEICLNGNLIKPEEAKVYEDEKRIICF
# [12] = cytotoxicity in HEK-293T cells, dose response, cytotoxicity control for TCR NF-kB inhibitor project, luminescence, T-cell screen hits (AID 489026); assay type: functional, cell-based;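 note: cells exposed to compound about 14 hours before the viability readout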
# [13] = test system: HEK293; test: cells; conditions: Homo sapiens;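 note: cells exposed to compound for 14 hours overnight before viability readout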
# [14] = target: SUMO E1/E2 (Homo sapiens, UniProt P63279+Q9UBE0+Q9UBT2); test: SAR analysis of SUMOylation using HTRF in an in-Vitro dose response assay. [Related pubchem assays (depositor defined):AID2006, AID2011, AID2018, AID2069, AID2658]; assay type: functional
# SUMO E1/E2, sequence (Q9UBE0 whole entry): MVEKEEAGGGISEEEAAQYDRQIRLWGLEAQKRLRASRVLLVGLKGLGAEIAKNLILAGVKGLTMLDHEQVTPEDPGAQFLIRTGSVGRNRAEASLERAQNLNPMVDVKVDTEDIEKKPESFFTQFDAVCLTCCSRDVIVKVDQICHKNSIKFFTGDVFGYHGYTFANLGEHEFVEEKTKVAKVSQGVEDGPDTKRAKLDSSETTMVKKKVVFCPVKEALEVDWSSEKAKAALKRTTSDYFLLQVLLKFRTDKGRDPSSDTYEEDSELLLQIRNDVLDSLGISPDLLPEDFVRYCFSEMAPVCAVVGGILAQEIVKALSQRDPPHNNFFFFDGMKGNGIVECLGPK
# SUMO E1/E2, sequence (Q9UBT2 whole entry): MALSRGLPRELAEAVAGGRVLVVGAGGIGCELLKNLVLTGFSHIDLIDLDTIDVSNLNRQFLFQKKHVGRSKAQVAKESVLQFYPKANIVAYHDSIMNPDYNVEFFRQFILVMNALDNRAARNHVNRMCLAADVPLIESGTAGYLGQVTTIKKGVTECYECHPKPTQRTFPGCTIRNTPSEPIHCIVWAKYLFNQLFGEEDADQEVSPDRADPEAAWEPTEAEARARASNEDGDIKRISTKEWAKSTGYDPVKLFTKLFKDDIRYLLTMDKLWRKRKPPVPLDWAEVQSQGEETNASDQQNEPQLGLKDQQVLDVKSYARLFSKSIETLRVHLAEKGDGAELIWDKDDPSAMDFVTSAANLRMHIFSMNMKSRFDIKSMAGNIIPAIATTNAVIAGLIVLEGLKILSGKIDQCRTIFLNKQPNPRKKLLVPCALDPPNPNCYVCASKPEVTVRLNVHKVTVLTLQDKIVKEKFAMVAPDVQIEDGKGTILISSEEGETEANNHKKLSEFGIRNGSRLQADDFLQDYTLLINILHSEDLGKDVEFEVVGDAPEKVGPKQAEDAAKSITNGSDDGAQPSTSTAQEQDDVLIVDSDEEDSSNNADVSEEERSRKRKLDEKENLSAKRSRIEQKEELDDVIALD
# SUMO E1/E2, sequence (P63279 whole entry): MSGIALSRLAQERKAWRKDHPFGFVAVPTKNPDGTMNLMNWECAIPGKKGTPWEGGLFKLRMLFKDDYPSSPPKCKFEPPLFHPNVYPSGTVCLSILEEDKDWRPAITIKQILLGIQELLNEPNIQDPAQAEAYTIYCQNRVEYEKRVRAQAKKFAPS
# [15] = target: Cytochrome P450 2C9 (Homo sapiens, UniProt P11712)
# Cytochrome P450 2C9, sequence (P11712 whole entry): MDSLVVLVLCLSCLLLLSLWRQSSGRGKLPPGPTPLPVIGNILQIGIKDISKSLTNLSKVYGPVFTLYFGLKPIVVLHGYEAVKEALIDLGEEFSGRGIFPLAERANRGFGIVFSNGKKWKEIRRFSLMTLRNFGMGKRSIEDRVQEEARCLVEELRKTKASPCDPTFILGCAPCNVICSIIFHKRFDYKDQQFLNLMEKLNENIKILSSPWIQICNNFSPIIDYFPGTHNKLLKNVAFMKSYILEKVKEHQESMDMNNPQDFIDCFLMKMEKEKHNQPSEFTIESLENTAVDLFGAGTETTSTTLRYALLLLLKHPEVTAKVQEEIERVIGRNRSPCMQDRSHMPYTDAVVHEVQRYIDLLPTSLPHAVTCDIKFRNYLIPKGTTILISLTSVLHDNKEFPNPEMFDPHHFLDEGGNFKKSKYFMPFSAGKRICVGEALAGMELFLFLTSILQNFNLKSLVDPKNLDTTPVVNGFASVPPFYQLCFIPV
# [16] = target: T3, Exodeoxyribonuclease V (Escherichia coli (strain K12), UniProt P04993+P07648+P08394); test: E. coli RecBCD inhibitors, dose response, counter-screen for AddAB inhibitor project, absorbance, V66 E. coli, mutant T4 phage (AID 492957); assay type: functional, cell-based, Escherichia coli str. K-12 substr. MG1655
# T3 sequence (P04993 whole entry): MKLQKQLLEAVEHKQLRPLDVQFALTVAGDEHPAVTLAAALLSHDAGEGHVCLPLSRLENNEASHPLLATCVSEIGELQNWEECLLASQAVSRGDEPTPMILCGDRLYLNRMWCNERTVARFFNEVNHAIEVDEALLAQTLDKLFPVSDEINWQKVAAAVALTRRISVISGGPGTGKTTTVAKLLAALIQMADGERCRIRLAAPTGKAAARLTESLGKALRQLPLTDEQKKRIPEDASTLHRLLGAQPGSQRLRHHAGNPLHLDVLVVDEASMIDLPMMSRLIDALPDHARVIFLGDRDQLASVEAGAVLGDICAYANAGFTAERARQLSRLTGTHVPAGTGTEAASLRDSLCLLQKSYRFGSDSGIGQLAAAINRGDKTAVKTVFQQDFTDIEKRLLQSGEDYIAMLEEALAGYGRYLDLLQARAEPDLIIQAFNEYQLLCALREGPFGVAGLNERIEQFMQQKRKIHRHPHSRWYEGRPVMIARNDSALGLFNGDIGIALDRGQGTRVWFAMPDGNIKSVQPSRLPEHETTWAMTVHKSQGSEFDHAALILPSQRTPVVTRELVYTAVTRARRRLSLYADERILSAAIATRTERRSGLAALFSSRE
# T3 sequence (P07648 whole entry): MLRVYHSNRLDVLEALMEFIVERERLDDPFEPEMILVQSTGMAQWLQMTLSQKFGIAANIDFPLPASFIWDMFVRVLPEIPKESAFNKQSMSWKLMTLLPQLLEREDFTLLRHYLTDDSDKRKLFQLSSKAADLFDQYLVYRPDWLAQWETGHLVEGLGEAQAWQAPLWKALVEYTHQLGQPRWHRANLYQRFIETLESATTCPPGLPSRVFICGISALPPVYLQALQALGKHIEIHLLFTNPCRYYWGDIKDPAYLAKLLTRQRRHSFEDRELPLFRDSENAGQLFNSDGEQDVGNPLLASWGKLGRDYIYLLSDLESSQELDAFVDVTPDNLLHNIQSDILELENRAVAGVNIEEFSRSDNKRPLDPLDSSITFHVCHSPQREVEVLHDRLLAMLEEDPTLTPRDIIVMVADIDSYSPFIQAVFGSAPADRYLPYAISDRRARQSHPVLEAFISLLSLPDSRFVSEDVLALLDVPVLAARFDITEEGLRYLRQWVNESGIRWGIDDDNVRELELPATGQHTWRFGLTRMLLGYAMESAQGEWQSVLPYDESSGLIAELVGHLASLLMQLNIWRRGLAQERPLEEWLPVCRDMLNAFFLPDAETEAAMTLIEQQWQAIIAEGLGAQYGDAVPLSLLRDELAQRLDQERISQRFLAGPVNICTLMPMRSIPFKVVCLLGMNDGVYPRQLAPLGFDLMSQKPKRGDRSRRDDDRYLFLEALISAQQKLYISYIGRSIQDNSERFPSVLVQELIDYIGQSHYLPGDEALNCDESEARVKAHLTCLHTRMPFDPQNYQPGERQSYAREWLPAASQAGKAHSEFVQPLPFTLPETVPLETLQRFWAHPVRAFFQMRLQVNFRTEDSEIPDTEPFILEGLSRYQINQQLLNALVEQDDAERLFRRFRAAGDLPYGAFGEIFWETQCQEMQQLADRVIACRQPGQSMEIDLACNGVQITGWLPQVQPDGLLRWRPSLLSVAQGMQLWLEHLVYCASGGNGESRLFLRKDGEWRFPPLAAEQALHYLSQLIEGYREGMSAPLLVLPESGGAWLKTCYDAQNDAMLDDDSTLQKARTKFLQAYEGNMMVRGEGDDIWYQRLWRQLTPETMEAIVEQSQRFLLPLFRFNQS
# T3 sequence (P08394 whole entry): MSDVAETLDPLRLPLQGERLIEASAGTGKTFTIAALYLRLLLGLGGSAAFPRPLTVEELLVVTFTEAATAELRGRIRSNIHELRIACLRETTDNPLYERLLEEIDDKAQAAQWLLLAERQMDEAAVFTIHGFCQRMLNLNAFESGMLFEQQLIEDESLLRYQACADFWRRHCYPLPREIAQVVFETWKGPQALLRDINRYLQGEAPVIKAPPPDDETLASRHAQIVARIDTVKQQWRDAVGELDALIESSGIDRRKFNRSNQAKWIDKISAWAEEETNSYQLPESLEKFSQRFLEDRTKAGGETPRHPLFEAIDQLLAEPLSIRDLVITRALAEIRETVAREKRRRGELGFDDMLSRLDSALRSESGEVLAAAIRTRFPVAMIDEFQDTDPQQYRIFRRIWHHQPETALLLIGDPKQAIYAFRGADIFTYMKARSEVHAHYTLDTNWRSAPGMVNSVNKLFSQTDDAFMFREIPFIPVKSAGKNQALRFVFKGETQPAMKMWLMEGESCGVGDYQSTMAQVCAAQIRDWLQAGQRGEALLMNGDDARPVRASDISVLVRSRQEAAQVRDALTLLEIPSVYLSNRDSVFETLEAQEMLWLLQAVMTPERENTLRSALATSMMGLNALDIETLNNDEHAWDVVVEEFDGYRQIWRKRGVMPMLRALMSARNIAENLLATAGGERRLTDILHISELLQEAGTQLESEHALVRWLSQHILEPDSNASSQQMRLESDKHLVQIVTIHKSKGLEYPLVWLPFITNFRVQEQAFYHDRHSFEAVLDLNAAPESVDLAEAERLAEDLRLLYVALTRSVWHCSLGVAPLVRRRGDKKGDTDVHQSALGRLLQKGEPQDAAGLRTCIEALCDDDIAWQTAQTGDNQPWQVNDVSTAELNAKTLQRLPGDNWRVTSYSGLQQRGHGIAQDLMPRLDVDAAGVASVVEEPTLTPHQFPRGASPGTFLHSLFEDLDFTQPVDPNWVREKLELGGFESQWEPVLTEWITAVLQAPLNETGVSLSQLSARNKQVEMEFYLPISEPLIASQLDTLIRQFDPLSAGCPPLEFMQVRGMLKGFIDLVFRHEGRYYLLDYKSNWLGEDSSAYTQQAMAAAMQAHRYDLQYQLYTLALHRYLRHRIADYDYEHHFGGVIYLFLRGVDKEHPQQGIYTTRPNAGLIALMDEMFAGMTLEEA
# [17] = target: Nonstructural protein 1 (Influenza A virus, UniProt Q194T2); assay type: functional, Influenza A virus (A/California/07/2009(H1N1))
# Nonstructural protein 1, sequence (Q194T2 whole entry): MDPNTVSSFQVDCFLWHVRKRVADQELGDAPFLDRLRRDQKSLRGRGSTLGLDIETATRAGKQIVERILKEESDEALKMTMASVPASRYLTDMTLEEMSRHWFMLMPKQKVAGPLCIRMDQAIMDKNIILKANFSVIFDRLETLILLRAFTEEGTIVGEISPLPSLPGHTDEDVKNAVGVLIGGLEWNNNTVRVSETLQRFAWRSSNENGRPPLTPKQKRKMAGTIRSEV
# [18] = Counterscreen for AddAB inhibitors: absorbance-based bacterial cell-based high throughput dose response assay for inhibitors of bacterial viability. [Related pubchem assays (depositor defined):AID435030, AID449728, AID449731, AID488942, AID488955, AID488956]; assay type: functional
structure (smiles),measurement,setting,value
CC(=O)c1c(C)oc2c1C(=O)c1ccccc1C2=O,AC50,[1],3.93 µM (active)
same,AC50,[2],6.68 µM (active)
same,AC50,[3],4.35 µM (active)
same,AC50,[4],41.3 µM (active)
O=C(Nc1ccc(Nc2ccncc2)cc1)c1ccc([N+](=O)[O-])cc1,AC50,[2],7.22 µM (active)
same,AC50,[4],33.1 µM (active)
CNS(=O)(=O)c1cccc(C(=O)OCC(=O)/C=C2/N(C)c3ccccc3C2(C)C)c1,IC50,[5],2.64 µM (active)
same,IC50,[6],1.64 µM (active)
COC(=O)[C@H]1[C@@H](c2ccccc2)[C@@]2(c3ccccc3)Oc3ccccc3[C@@]1(O)[C@@H]2O,AC50,[7],3.98 µM (inconclusive)
same,AC50,[8],3.16 µM (inconclusive)
same,AC50,[9],inconclusive
O=C(Nc1ccc(F)cc1)c1ccc(CN2CCc3ccccc3C2)cc1,IC50,[10],2.88 µM (active)
same,IC50,[11],3.11 µM (active)
same,IC50,[12],> 80 µM (inactive)
same,IC50,[13],> 20 µM (inactive)
COc1cc(-c2n[nH]c(=S)n2/N=C/c2cccn2C)cc(OC)c1OC,IC50,[14],> 100 µM (inactive)
Cc1ccc(N=C(S)N2CCN(C(=O)C3CCCO3)CC2)c(C)c1 (stereo not given),AC50,[8],22.4 µM (inconclusive)
same,AC50,[9],inconclusive
same,AC50,[15],inconclusive
Oc1nncc(N/N=C/c2ccccn2)n1,IC50,[16],27.5 µM (inactive)
same,IC50,[17],1.44 µM (active)
same,IC50,[18],32.2 µM (inactive)
same,AC50,[2],4.65 µM (active)
C/C(=N\NC(=O)COc1ccc([N+](=O)[O-])cc1)C(C)(C)C,AC50,[8],28.2 µM (inconclusive)
same,AC50,[9],inconclusive
